Assay results as given in patent US12448389B2, “BRM targeting compounds and associated methods of use” (Prelude Therapeutics Incorporated, priority 2020, dated 2025).

Columns and labels:
SMARCA2-HiBiT = molecular target: T1, SMARCA2-HiBiT (Homo sapiens, UniProt P51531); assay: SMARCA2 HiBiT degradation assay in HeLa cells; assay type: cell-based; conditions: 18 hours incubation; for DC50: read-out: HeLa_HiBit-SM2 DC50; for Dmax: HeLa, read-out: HeLa-HiBit-SM2 Dmax (%)
T1 construct: SMARCA2-HiBiT knock-in Hela monoclonal cell (CS302366); host or cells: HeLa monoclonal knock-in line (CRISPR HiBiT knock-in at the endogenous locus, heterozygous)
T1 sequence (P51531 whole entry): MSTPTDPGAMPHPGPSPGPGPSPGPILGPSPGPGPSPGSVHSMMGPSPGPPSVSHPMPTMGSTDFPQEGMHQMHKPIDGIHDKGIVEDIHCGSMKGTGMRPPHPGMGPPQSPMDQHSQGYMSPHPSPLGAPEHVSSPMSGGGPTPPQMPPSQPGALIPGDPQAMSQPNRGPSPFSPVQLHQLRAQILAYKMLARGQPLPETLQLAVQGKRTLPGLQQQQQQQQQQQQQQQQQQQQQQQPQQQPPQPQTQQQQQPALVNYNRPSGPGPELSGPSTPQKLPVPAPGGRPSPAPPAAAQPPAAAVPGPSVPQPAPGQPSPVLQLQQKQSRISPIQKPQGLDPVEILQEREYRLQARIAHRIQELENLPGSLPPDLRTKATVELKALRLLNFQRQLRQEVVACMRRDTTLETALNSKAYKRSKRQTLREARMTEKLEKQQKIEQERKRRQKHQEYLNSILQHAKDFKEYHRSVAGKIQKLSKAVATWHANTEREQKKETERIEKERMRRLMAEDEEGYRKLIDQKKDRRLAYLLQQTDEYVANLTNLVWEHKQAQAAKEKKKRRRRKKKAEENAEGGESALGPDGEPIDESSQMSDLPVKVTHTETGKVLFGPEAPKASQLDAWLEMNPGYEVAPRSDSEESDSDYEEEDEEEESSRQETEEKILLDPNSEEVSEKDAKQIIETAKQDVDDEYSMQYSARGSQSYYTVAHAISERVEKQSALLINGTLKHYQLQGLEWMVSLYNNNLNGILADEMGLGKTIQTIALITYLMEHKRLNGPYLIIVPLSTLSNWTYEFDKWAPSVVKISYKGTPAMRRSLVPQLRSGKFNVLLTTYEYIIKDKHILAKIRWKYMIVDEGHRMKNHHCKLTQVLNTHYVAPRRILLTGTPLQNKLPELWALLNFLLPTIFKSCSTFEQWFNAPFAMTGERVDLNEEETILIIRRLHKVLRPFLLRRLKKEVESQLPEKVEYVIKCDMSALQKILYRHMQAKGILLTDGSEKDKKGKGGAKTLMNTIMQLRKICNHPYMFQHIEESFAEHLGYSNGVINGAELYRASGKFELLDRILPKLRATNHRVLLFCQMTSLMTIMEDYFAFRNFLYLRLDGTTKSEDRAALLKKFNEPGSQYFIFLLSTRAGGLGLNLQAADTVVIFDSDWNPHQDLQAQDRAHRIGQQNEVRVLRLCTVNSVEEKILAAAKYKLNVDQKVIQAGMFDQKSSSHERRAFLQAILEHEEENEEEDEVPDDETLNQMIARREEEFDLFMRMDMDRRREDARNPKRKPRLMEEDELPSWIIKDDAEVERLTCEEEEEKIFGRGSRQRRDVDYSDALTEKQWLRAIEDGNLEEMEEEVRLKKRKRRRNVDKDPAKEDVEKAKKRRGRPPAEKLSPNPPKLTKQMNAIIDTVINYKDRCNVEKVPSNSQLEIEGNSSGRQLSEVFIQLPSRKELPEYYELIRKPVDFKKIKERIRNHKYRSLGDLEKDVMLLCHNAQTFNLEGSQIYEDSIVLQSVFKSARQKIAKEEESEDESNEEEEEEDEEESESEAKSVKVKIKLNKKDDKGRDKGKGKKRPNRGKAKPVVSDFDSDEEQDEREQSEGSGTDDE
Method in brief: (§1)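 HeLa monoclonal lines with heterozygous HiBiT knock-in were seeded at 2500 cells/well in EMEM with 10% FBS and treated with compound for 18 h at 37 °C. Remaining tagged protein was measured by Nano-Glo HiBiT lytic luminescence after 30–60 min at RT, and values came from curve fitting.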

SMARCA4-HiBiT = molecular target: T2, SMARCA4-HiBiT (Homo sapiens, UniProt P51532); assay: SMARCA4 HiBiT degradation assay in HeLa cells; assay type: cell-based; conditions: 18 hours incubation; for DC50: read-out: HeLa-HiBit-SM4 DC50; for Dmax: HeLa, read-out: HeLa-HiBit-SM4 Dmax (%)
T2 construct: SMARCA4-HiBiT knock-in Hela monoclonal cell (CS3023226); host or cells: HeLa monoclonal knock-in line (CRISPR HiBiT knock-in at the endogenous locus, heterozygous)
T2 sequence (P51532 whole entry): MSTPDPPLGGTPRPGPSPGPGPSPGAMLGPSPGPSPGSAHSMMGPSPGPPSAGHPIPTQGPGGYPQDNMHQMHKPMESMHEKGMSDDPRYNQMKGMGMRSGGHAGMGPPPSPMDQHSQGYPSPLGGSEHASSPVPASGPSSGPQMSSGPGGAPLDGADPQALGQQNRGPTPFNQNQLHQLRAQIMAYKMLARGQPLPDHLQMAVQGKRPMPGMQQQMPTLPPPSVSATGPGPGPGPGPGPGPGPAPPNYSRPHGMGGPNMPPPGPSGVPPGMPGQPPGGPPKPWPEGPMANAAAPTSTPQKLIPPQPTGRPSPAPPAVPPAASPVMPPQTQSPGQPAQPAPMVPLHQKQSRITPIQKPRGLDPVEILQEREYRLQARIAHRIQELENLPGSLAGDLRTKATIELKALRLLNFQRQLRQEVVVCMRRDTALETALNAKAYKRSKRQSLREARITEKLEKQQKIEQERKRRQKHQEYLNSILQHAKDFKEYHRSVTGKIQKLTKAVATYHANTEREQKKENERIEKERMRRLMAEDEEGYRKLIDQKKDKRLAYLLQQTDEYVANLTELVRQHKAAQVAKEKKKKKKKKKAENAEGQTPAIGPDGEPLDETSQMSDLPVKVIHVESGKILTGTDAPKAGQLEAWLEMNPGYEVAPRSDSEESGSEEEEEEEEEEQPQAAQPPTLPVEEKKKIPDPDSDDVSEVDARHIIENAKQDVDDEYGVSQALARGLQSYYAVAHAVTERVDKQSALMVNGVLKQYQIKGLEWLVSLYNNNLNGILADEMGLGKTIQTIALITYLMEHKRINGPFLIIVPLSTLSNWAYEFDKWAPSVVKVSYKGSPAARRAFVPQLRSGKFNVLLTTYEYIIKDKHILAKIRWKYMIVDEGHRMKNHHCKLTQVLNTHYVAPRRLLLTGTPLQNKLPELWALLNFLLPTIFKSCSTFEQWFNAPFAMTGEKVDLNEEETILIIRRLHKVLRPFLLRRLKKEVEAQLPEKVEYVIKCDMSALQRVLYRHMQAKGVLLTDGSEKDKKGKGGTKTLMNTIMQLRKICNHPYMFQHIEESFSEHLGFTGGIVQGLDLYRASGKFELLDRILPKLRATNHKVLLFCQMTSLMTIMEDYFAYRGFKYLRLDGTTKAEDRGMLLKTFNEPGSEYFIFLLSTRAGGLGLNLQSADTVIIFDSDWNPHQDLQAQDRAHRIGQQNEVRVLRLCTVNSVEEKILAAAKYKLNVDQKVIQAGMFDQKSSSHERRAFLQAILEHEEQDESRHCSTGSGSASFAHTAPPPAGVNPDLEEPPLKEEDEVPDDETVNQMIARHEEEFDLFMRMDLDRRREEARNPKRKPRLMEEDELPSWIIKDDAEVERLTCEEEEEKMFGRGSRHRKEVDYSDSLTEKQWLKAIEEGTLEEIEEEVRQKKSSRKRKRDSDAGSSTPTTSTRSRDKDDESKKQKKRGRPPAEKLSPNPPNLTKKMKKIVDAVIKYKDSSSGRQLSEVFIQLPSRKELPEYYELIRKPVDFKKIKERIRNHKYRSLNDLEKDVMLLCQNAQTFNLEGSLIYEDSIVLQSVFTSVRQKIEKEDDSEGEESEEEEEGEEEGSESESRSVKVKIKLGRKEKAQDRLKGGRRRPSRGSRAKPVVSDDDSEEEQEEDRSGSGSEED
Method in brief: as §1

Compound	DC50 (SMARCA2-HiBiT) [µM]	Dmax (SMARCA2-HiBiT) [%]	DC50 (SMARCA4-HiBiT) [µM]	Dmax (SMARCA4-HiBiT) [%]	HeLa-HiBit-SM2 Dmax (%) (SMARCA2-HiBiT)	HeLa-HiBit-SM4 Dmax (%) (SMARCA4-HiBiT)
O=C1CCC(N2C(=O)c3ccc(N4CCC(CN5C6COCC5CC(CN5CCN7c8cc(-c9ccccc9O)nnc8NC[C@H]7C5)C6)CC4)cc3C2=O)C(=O)N1 (stereo partly drawn) [Example 133, 2-(2,6-dioxopiperidin-3-yl)-5-(4-((7-(((S)-2-(2-hydroxyphenyl)-5,6,6a,7,9,10-hexahydro-8H-pyrazino[1′,2′:4,5]pyrazino[2,3-c]pyridazin-8-yl)methyl)-3-oxa-9-azabicyclo[3.3.1]nonan-9-yl)methyl)piperidin-1-yl)isoindoline-1,3-dione]	< 0.01	50 to 75	< 0.01	50 to 75	–	–
CN(CCN1CCC(N2CCN3c4cc(-c5ccccc5O)nnc4NC[C@H]3C2)CC1)c1cccc2c1C(=O)N(C1CCC(=O)NC1=O)C2=O (stereo partly drawn) [Example 68, 2-(2,6-dioxopiperidin-3-yl)-4-((2-(4-((S)-2-(2-hydroxyphenyl)-5,6,6a,7,9,10-hexahydro-8H-pyrazino[1′,2′:4,5]pyrazino[2,3-c]pyridazin-8-yl)piperidin-1-yl)ethyl)(methyl)amino)isoindoline-1,3-dione]	< 0.01	> 85	0.01 to 0.1	> 85	–	–
O=C1CCC(N2C(=O)c3ccc(N4CCC(CN5CCC6(CN7CCN8c9cc(-c%10ccccc%10O)nnc9NC[C@H]8C7)CC6C5)CC4)cc3C2=O)C(=O)N1 (stereo partly drawn) [Example 171, 2-(2,6-dioxopiperidin-3-yl)-5-[4-[[6-[[(10S)-4-(2-hydroxyphenyl)-1,5,6,8,12-pentazatricyclo[8.4.0.02,7]tetradeca-2,4,6-trien-12-yl]methyl]-3-azabicyclo[4.1.0]heptan-3-yl]methyl]piperidin-1-yl]isoindole-1,3-dione]	< 0.01	> 85	< 0.01	> 85	–	–
O=C1CCC(N2Cc3ccc(N4CCC(CN5CCC(CN6CCN7c8cc(-c9ccccc9O)nnc8NC[C@H]7C6)CC5CO)CC4)cc3C2=O)C(=O)N1 (stereo partly drawn) [Example 235, 3-(6-(4-((2-(hydroxymethyl)-4-(((S)-2-(2-hydroxyphenyl)-5,6,6a,7,9,10-hexahydro-8H-pyrazino[1′,2′:4,5]pyrazino[2,3-c]pyridazin-8-yl)methyl)piperidin-1-yl)methyl)piperidin-1-yl)-1-oxoisoindolin-2-yl)piperidine-2,6-dione]	< 0.01	> 85	< 0.01	> 85	–	–
O=C1CCC(N2Cc3ccc(N4CC(CN5C[C@@H]6[C@H](C5)[C@H]6CN5CCN6c7cc(-c8ccccc8O)nnc7NC[C@H]6C5)C4)cc3C2=O)C(=O)N1 (stereo partly drawn) [Example 108, 3-(6-(3-(((1R,5S,6r)-6-(((S)-2-(2-hydroxyphenyl)-5,6,6a,7,9,10-hexahydro-8H-pyrazino[1′,2′:4,5]pyrazino[2,3-c]pyridazin-8-yl)methyl)-3-azabicyclo[3.1,0]hexan-3-yl)methyl)azetidin-1-yl)-1-oxoisoindolin-2-yl)piperidine-2,6-dione]	< 0.01	> 85	< 0.01	> 85	–	–
CC(C1CCN(c2ccc3c(c2)C(=O)N(C2CCC(=O)NC2=O)C3=O)CC1)N1CCC(CN2CCN3c4cc(-c5ccccc5O)nnc4NCC3C2)CC1 (stereo in doubt) [Example 160, 2-(2,6-dioxopiperidin-3-yl)-5-[4-[1-[4-[[(10S)-4-(2-hydroxyphenyl)-1,5,6,8,12-pentazatricyclo[8.4.0.02,7]tetradeca-2(7),3,5-trien-12-yl]methyl]piperidin-1-yl]ethyl]piperidin-1-yl]isoindole-1,3-dione]	< 0.01	75 to 85	< 0.01	50 to 75	–	–
O=C1CCC(N2C(=O)c3ccc(N4CCC(O)(CN5CCC(CN6CCN7c8cc(-c9ccccc9O)nnc8NC[C@H]7C6)CC5)CC4)cc3C2=O)C(=O)N1 (stereo partly drawn) [Example 50, 2-(2,6-dioxopiperidin-3-yl)-5-(4-hydroxy-4-((4-(((S)-2-(2-hydroxyphenyl)-5,6,6a,7,9,10-hexahydro-8H-pyrazino[1′,2′:4,5]pyrazino[2,3-c]pyridazin-8-yl)methyl)piperidin-1-yl)methyl)piperidin-1-yl)isoindoline-1,3-dione]	< 0.01	> 85	< 0.01	75 to 85	–	–
O=C1CCC(N2C(=O)c3ccc(N4CCC(CNC5CCN(C(=O)N6CCN7c8cc(-c9ccccc9O)nnc8NC[C@H]7C6)CC5)CC4)cc3C2=O)C(=O)N1 (stereo partly drawn) [Example 140, 2-(2,6-dioxopiperidin-3-yl)-5-(4-(((l-((S)-2-(2-hydroxyphenyl)-6,6a,7,8,9,10-hexahydro-5H-pyrazino[1′,2′:4,5]pyrazino[2,3-c]pyridazine-8-carbonyl)piperidin-4-yl)amino)methyl)piperidin-1-yl)isoindoline-1,3-dione]	< 0.01	75 to 85	< 0.01	75 to 85	–	–
O=C1CCC(N2C(=O)c3ccc(N4CC[C@@H](CN5C[C@@H]6[C@H](C5)[C@H]6CN5CCN6c7cc(-c8ccccc8O)nnc7NC[C@H]6C5)[C@H](F)C4)cc3C2=O)C(=O)N1 (stereo partly drawn) [Example 201, 2-(2,6-dioxopiperidin-3-yl)-5-[(3S,4S)-3-fluoro-4-[[(1S,5R)-6-[[(10S)-4-(2-hydroxyphenyl)-1,5,6,8,12-pentazatricyclo [8.4.0.02,7]tetradeca-2(7),3,5-trien-12-yl]methyl]-3-azabicyclo[3.1.0]hexan-3-yl]methyl]piperidin-1-yl]isoindole-1,3-dione]	< 0.01	–	< 0.01	–	A (A=Dmax>85%)	A (A=Dmax>85%)

Now from value to compound:

DC50 (SMARCA2-HiBiT) [µM]	Dmax (SMARCA2-HiBiT) [%]	DC50 (SMARCA4-HiBiT) [µM]	Dmax (SMARCA4-HiBiT) [%]	HeLa-HiBit-SM2 Dmax (%) (SMARCA2-HiBiT)	HeLa-HiBit-SM4 Dmax (%) (SMARCA4-HiBiT)	Compound
< 0.01	> 85	< 0.01	> 85	–	–	C[C@@H]1C[C@H](CN2CCC(CN3CCN4c5cc(-c6ccccc6O)nnc5NC[C@H]4C3)CC2)CCN1c1ccc2c(c1)C(=O)N(C1CCC(=O)NC1=O)C2=O (stereo partly drawn) [Example 184, 2-(2,6-dioxopiperidin-3-yl)-5-[(2R,4R)-4-[[4-[[(10S)-4-(2-hydroxyphenyl)-1,5,6,8,12-pentazatricyclo[8.4.0.02,7]tetradeca-2,4,6-trien-12-yl]methyl]piperidin-1-yl]methyl]-2-methylpiperidin-1-yl]isoindole-1,3-dione]
< 0.01	> 85	< 0.01	75 to 85	–	–	O=C1CCC(N2C(=O)c3ccc(N4CCOC(CN5C[C@@H]6[C@H](C5)[C@H]6CN5CCN6c7cc(-c8ccccc8O)nnc7NC[C@H]6C5)C4)cc3C2=O)C(=O)N1 (stereo partly drawn) [Example 49, 2-(2,6-dioxopiperidin-3-yl)-5-(2-(((1R,5S,6s)-6-(((S)-2-(2-hydroxyphenyl)-5,6,6a,7,9,10-hexahydro-8H-pyrazino[1′,2′:4,5]pyrazino[2,3-c]pyridazin-8-yl)methyl)-3-azabicyclo[3.1.0]hexan-3-yl)methyl)morpholino)isoindoline-1,3-dione]
< 0.01	> 85	< 0.01	> 85	–	–	CC(CN1CCN2c3cc(-c4ccccc4O)nnc3NC[C@H]2C1)C1CCN(CC2CCN(c3ccc4c(c3)C(=O)N(C3CCC(=O)NC3=O)C4=O)CC2)CC1 (stereo partly drawn) [Example 249, 2-(2,6-dioxopiperidin-3-yl)-5-(4-((4-(1-((S)-2-(2-hydroxyphenyl)-5,6,6a,7,9,10-hexahydro-8H-pyrazino[1′,2′:4,5]pyrazino[2,3-c]pyridazin-8-yl)propan-2-yl)piperidin-1-yl)methyl)piperidin-1-yl)isoindoline-1,3-dione]
< 0.01	75 to 85	< 0.01	75 to 85	–	–	O=C1CCC(N2C(=O)c3ccc(N4CCC(CCN5CCC(CN6CCN7c8cc(-c9ccccc9O)nnc8NC[C@H]7C6)CC5)CC4)cc3C2=O)C(=O)N1 (stereo partly drawn) [Example 224, 2-(2,6-dioxopiperidin-3-yl)-5-(4-(2-(4-(((S)-2-(2-hydroxyphenyl)-5,6,6a,7,9,10-hexahydro-8H-pyrazino[1′,2′:4,5]pyrazino[2,3-c]pyridazin-8-yl)methyl)piperidin-1-yl)ethyl)piperidin-1-yl)isoindoline-1,3-dione]
< 0.01	≤ 50	0.01 to 0.1	50 to 75	–	–	O=C1CCC(N2Cc3ccc(N4CCOC(CN5CCC(C(=O)N6CCN7c8cc(-c9ccccc9O)nnc8NC[C@H]7C6)CC5)C4)cc3C2=O)C(=O)N1 (stereo partly drawn) [Example 113, 3-(6-(2-((4-((S)-2-(2-hydroxyphenyl)-6,6a,7,8,9,10-hexahydro-5H-pyrazino[1′,2′:4,5]pyrazino[2,3-c]pyridazine-8-carbonyl)piperidin-1-yl)methyl)morpholino)-1-oxoisoindolin-2-yl)piperidine-2,6-dione]
< 0.01	50 to 75	0.01 to 0.1	50 to 75	–	–	O=C1CCC(N2C(=O)c3ccc(Nc4cnn(CCN5CCC(N6CCN7c8cc(-c9ccccc9O)nnc8NC[C@H]7C6)CC5)c4)cc3C2=O)C(=O)N1 (stereo partly drawn) [Example 245, 2-(2,6-dioxopiperidin-3-yl)-5-((1-(2-(4-((S)-2-(2-hydroxyphenyl)-5,6,6a,7,9,10-hexahydro-8H-pyrazino[1′,2′:4,5]pyrazino[2,3-c]pyridazin-8-yl)piperidin-1-yl)ethyl)-1H-pyrazol-4-yl)amino)isoindoline-1,3-dione]
